Measured values as given in patent publication EP4729529A1, “PREPARATION OF PEPTIDE INHIBITOR OF INTERLEUKIN-23 RECEPTOR AND USE THEREOF” (Xizang Haisco Pharmaceutical Co., Ltd., priority 2023, dated 2024).
Starred links: 1 amine or outer side, 2 acyl side, 3 side chain; linkers in the order of their positions; H or OH if unused. Positions of bridges follow the written chain, without caps; N, C: chain ends. Non-standard residues stand in square brackets, D forms with d. Residues, ends and D or L forms follow the SMILES beside them. Phe(4-OC2H4NH2,2,3-(CH2)3) = NCCOc1ccc(C[C@H](N)C(=O)O)c2c1CCC2; Trp(7-cPr) = N[C@@H](Cc1c[nH]c2c(C3CC3)cccc12)C(=O)O; NH(CH2CH2O)4CH2CO = O=C(COCCOCCOCCOCCN[*:1])[*:2]; Trp(7-Me) = Cc1cccc2c(C[C@H](N)C(=O)O)c[nH]c12; 2Nal = N[C@@H](Cc1ccc2ccccc2c1)C(=O)O; X1 = O=C(C(N[*:1])C1(S[*:3])CC1)[*:2]; Thp(SO2) = NC1(C(=O)O)CCS(=O)(=O)CC1; AEF = NCCOc1ccc(C[C@H](N)C(=O)O)cc1; 3Pal = N[C@@H](Cc1cccnc1)C(=O)O; Cit = NC(=O)NCCC[C@H](N)C(=O)O; Pen = CC(C)(S)[C@H](N)C(=O)O; Thp = NC1(C(=O)O)CCOCC1; AEEA = NCCOCCOCC(=O)O; PEG1 = NCCOCCC(=O)O; Ahx = NCCCCCC(=O)O; Sar = CNCC(=O)O

How the values were obtained:
IL-23α/IL-12β and IL-23R = biological target: T1, IL-23α/IL-12β and IL-23R (Homo sapiens, UniProt Q5VWK5); test: IL-23α/IL-12β and IL-23R binding assay (TR-FRET/HTRF); conditions: inhibition of the binding of IL-23α/IL-12β to IL-23R, TR-FRET; both proteins 0.3 nM
T1 construct: purchased ACRO ILR-H82F3 (IL-23R); ILB-H52W5 (IL-23α/IL-12β)
T1 sequence (Q5VWK5 24-353 limits assumed): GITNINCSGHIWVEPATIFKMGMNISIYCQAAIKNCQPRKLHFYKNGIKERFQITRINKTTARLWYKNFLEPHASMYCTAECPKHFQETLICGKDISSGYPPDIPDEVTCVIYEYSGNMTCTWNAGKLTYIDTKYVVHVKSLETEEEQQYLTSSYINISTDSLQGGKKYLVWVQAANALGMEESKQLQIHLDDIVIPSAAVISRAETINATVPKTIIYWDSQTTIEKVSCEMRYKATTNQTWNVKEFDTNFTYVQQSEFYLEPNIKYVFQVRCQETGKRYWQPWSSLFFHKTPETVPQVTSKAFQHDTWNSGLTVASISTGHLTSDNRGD
Protocol: 1. IL-23α/IL-12β and IL-23R binding assay
Compounds were tested for their inhibition on the binding of IL-23α/IL-12β to IL-23R by the TR-FRET method. Solutions of proteins IL-23α/IL-12β (ACRO, Cat# ILB-H52W5) and IL-23R (ACRO, Cat# ILR-H82F3) were prepared in reaction buffer PPI (PerkinElmer, Cat# 61DB10RDF). The final concentrations of IL-23α/IL-12β and IL-23R in the reaction mixture were both 0.3 nM. Positive reference Guselkumab was 3-fold diluted from an initial concentration of 30 nM, with 10 doses. 0.1 µL of the positive reference diluted in the reaction buffer was delivered to a 384-well plate (Grenier, Cat# 784075) by the acoustic liquid delivery technique (Echo 655), and the plate was centrifuged at 1000 rpm for 1 minute. 2.5 µL of IL-23α/IL-12β solution was transferred into the 384-well reaction plate, and the plate was centrifuged at 1000 rpm for 1 minute, and incubated at 25°C for 60 minutes. 2.5 µL of IL-23R solution was transferred into the 384-well reaction plate, and the plate was centrifuged at 1000 rpm for 1 minute. 5 µL of Streptavidin-Tb cryptate and Anti 6HIS-d2 detection mixture was transferred into the 384-well reaction plate, and the plate was centrifuged at 1000 rpm for 1 minute, and incubated at 25°C for 60 minutes. Finally, the HTRF signal (Ratio 665/620 nm) was read with a BMG high-throughput drug screening multifunctional microplate reader. IC50 values were obtained by nonlinear regression curve fitting using GraphPad Prism software.

IL-23R = biological target: T2, IL-23R (Homo sapiens, UniProt Q5VWK5); test: IL-23R reporter gene assay (HEK-blue IL23 reporter gene cell line, rhIL23 stimulation); type: cell-based; conditions: Inhibition of IL-23R, rhIL23 1 ng/mL, 24 hours
T2 construct: host or cells: HEK-blue IL23 reporter gene cell line
T2 sequence (Q5VWK5 24-629): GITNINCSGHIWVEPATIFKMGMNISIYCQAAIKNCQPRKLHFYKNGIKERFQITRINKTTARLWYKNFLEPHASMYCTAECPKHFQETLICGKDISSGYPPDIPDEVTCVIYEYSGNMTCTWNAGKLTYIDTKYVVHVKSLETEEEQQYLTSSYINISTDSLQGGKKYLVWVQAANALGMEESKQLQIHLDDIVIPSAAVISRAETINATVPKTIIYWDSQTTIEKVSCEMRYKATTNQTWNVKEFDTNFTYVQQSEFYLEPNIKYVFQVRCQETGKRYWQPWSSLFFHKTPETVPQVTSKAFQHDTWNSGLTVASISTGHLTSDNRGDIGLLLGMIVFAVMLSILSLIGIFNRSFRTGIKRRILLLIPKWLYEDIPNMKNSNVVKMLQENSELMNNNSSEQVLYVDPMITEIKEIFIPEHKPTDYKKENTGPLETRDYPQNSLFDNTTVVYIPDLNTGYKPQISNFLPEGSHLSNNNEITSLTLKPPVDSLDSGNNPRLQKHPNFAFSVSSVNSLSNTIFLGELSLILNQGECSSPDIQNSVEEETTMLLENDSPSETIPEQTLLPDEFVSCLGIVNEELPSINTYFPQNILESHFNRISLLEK
Protocol: 2. IL-23R reporter gene assay
The purpose of this assay was to assess the ability of compounds to inhibit the binding of IL23p19 to IL23R in a reporter gene system. The HEK-blue IL23 reporter gene cell line (Invivogen, hkb-il23) was cultured in DMEM + 10% FBS + 100 ug/mL Normocin medium. When the cell density reached 80%-90%, 5000 cells/well were plated into a 384-well plate, and the plate was incubated overnight at 37°C with 5% CO2. Then, the compound stock solution was diluted in DMSO, and 40 nL of the dilution was transferred into the 384-well culture plate by Echo. The plate was incubated at 37°C with 5% CO2 for 0.5 hours. 40 nL/well of rhIL23 (R&D, 1290-IL) was added to the 384-well cell culture plate at a final concentration of 1 ng/mL, and the plate was incubated at 37°C with 5% CO2 for 24 hours. 18 µL of Quanti-Blue™ solution was added to a new 384-well plate. 2 µL/well of cell culture supernatant was transferred into the 384-well plate prepared in Step 6, and the plate was incubated at 37°C with 5% CO2 for 1 hour. Absorbance values at […] were read on BMG. The binding ability of the compounds was assessed using the following formula, and IC50 values were obtained by fitting with Graphpad.
Calculation formula of inhibition rate: [formula] • where Data negative: mean of DMSO control group; and • Data positive: mean of non-IL23-stimulated group
The calculation formula of IC50 was as follows: Y = Bottom + (Top−Bottom)/(1+10^(∧)((LogIC50−X)*HillSlope)) [formula] • where X: concentration of compound; and • Y: inhibition rate of compound Table 2. Inhibition of IL-23R by test compounds

[1] = Pharmacokinetic test in mice (intravenous and intragastric, plasma LC-MS/MS); type: in vivo; conditions: male, mouse, Balb/c mice
Protocol: 4. Pharmacokinetic test in mice
4.1. Experimental animals: Male Balb/c mice (20-25 g, 18 mice/compound) were purchased from Chengdu Dossy Experimental Animals Co., Ltd.
4.2. Experimental design: On the day of the experiment, the Balb/c mice were randomly grouped by body weight. The animals were fasted with water available for 12-14 h one day before the administration, and were fed 4 h after the administration. Table 4. Administration information
Before and after administration, 0.06 mL of blood was taken from the orbit under isoflurane anaesthesia, and placed in an EDTAK2 centrifuge tube. The tube was centrifuged at 5000 rpm at 4°C for 10 min, and plasma was collected. The blood collection time points for the intravenous group and intragastric group were both 0 min, 5 min, 15 min, 30 min, 1 h, 2 h, 4 h, 6 h, 8 h, and 24 h. Before analysis and detection, all samples were stored at -80°C, and the samples were quantitatively analysed by LC-MS/MS. Table 5. Pharmacokinetic parameters of test compounds in mouse plasma

Row | SMILES | IC50 (IL-23α/IL-12β and IL-23R) [nM] | IC50 (IL-23R) [nM] | AUC(0-t) ([1]; iv, i.v. (1 mg/kg)) [ng·h/mL] | clearance ([1]; iv, i.v. (1 mg/kg)) [mL/min/kg] | Vd ([1]; iv, i.v. (1 mg/kg), read-out: Vdss) [L/kg] | AUC(0-t) ([1]; po, i.g. (10 mg/kg)) [ng·h/mL] | bioavailability ([1]; po, i.g. (10 mg/kg)) [%]
1 | CC(=O)NCCCC[C@@H]1NC(=O)[C@H](Cc2c[nH]c3c(C)cccc23)NC(=O)[C@H]([C@@H](C)O)NC(=O)[C@H](CC(N)=O)NC(=O)[C@@H](NC(C)=O)C(C)(C)SSC(C)(C)[C@@H](C(=O)N[C@@H](Cc2ccc(OCCN)cc2)C(=O)N[C@@H](Cc2ccc3ccccc3c2)C(=O)NC2(C(=O)N[C@@H](CCC(=O)O)C(=O)N[C@@H](CC(N)=O)C(=O)N[C@@H](Cc3cccnc3)C(=O)N(C)CC(N)=O)CCS(=O)(=O)CC2)NC1=O [Compound 9] | 0.056 | 2.56 | – | – | – | – | –
2 | CC(=O)NCCCC[C@@H]1NC(=O)[C@H](Cc2c[nH]c3c(C)cccc23)NC(=O)[C@H]([C@@H](C)O)NC(=O)[C@H](Cc2c[nH]cn2)NC(=O)[C@H]2NC(=O)CCCCCNC(=O)CC[C@@H](C(=O)N[C@@H](CC(N)=O)C(=O)N[C@@H](Cc3cccnc3)C(=O)N(C)CC(N)=O)NC(=O)C3(CCOCC3)NC(=O)[C@H](Cc3ccc4ccccc4c3)NC(=O)[C@H](Cc3ccc(OCCN)cc3)NC(=O)[C@@H](NC1=O)C(C)(C)SSC2(C)C [Compound 11] ([Ahx][Pen]HT[Trp(7-Me)]K(Ac)[Pen][AEF][2Nal][Thp]EN[3Pal][Sar]-NH2; disulfide 2-7; lactam N-11) | 0.124 | 7.47 | – | – | – | – | –
3 | CC(=O)N[C@@H]1C(=O)N[C@@H](Cc2c[nH]cn2)C(=O)N[C@@H]([C@@H](C)O)C(=O)N[C@@H](Cc2c[nH]c3c(C4CC4)cccc23)C(=O)N[C@@H](CCCNC(N)=O)C(=O)N[C@H](C(=O)N[C@@H](Cc2ccc(OCCN)cc2)C(=O)N[C@@H](Cc2ccc3ccccc3c2)C(=O)NC2(C(=O)N[C@@H](CCC(=O)O)C(=O)N[C@@H](CC(N)=O)C(=O)N[C@@H](Cc3cccnc3)C(=O)N(C)CC(N)=O)CCOCC2)C(C)(C)SSC1(C)C [Compound 12] (Ac-[Pen]HT[Trp(7-cPr)][Cit][Pen][AEF][2Nal][Thp]EN[3Pal][Sar]-NH2; disulfide 1-6) | 0.0417 | 3.58 | – | – | – | – | –
4 | CC(=O)NC1C(=O)N[C@@H](Cc2c[nH]cn2)C(=O)N[C@@H]([C@@H](C)O)C(=O)N[C@@H](Cc2c[nH]c3c(C4CC4)cccc23)C(=O)N[C@@H](CCC(N)=O)C(=O)N[C@H](C(=O)N[C@@H](Cc2ccc(OCCN)c3c2CCC3)C(=O)N[C@@H](Cc2ccc3ccccc3c2)C(=O)NC2(C(=O)N[C@@H](CCC(=O)O)C(=O)N[C@@H](CC(N)=O)C(=O)N[C@@H](Cc3cccnc3)C(=O)N(C)CC(N)=O)CCS(=O)(=O)CC2)C(C)(C)SSC12CC2 (stereo partly shown) [Compound 24] (Ac-[X1]HT[Trp(7-cPr)]Q[Pen][Phe(4-OC2H4NH2,2,3-(CH2)3)][2Nal][Thp(SO2)]EN[3Pal][Sar]-NH2; disulfide 1-6) | 0.063 | 9.38 | 6770 ± 183 | 2.42 ± 0.064 | 0.225 ± 0.017 | 227 ± 139 | 0.335 ± 0.2
5 | CC(=O)NCCCC[C@@H]1NC(=O)[C@H](Cc2c[nH]c3c(C)cccc23)NC(=O)[C@H]([C@@H](C)O)NC(=O)[C@H](Cc2c[nH]cn2)NC(=O)[C@H]2NC(=O)COCCOCCNC(=O)CC[C@@H](C(=O)N[C@@H](CC(N)=O)C(=O)N[C@@H](Cc3cccnc3)C(=O)N(C)CC(N)=O)NC(=O)C3(CCOCC3)NC(=O)[C@H](Cc3ccc4ccccc4c3)NC(=O)[C@H](Cc3ccc(OCCN)cc3)NC(=O)[C@@H](NC1=O)C(C)(C)SSC2(C)C [Compound 27] ([AEEA][Pen]HT[Trp(7-Me)]K(Ac)[Pen][AEF][2Nal][Thp]EN[3Pal][Sar]-NH2; disulfide 2-7; lactam N-11) | 0.114 | 1.37 | – | – | – | – | –
6 | CC(=O)NCCCC[C@@H]1NC(=O)[C@H](Cc2c[nH]c3c(C)cccc23)NC(=O)[C@H]([C@@H](C)O)NC(=O)[C@H](Cc2c[nH]cn2)NC(=O)[C@H]2NC(=O)CCOCCNC(=O)CC[C@@H](C(=O)N[C@@H](CC(N)=O)C(=O)N[C@@H](Cc3cccnc3)C(=O)N(C)CC(N)=O)NC(=O)C3(CCOCC3)NC(=O)[C@H](Cc3ccc4ccccc4c3)NC(=O)[C@H](Cc3ccc(OCCN)cc3)NC(=O)[C@@H](NC1=O)C(C)(C)SSC2(C)C [Compound 28] ([PEG1][Pen]HT[Trp(7-Me)]K(Ac)[Pen][AEF][2Nal][Thp]EN[3Pal][Sar]-NH2; disulfide 2-7; lactam N-11) | 0.122 | 6.27 | – | – | – | – | –
7 | CC(=O)NCCCC[C@@H]1NC(=O)[C@H](Cc2c[nH]c3c(C)cccc23)NC(=O)[C@H]([C@@H](C)O)NC(=O)[C@H](Cc2c[nH]cn2)NC(=O)[C@H]2NC(=O)COCCOCCOCCOCCNC(=O)CC[C@@H](C(=O)N[C@@H](CC(N)=O)C(=O)N[C@@H](Cc3cccnc3)C(=O)N(C)CC(N)=O)NC(=O)C3(CCOCC3)NC(=O)[C@H](Cc3ccc4ccccc4c3)NC(=O)[C@H](Cc3ccc(OCCN)cc3)NC(=O)[C@@H](NC1=O)C(C)(C)SSC2(C)C [Compound 29] ([NH(CH2CH2O)4CH2CO][Pen]HT[Trp(7-Me)]K(Ac)[Pen][AEF][2Nal][Thp]EN[3Pal][Sar]-NH2; disulfide 2-7; lactam N-11) | 0.089 | 1.72 | – | – | – | – | –
